A word on the Ki: it is a measure of affinity in units of concentration, obtained from inhibition or displacement. Low values mean a stronger hold on the target, high ones a looser hold on the target.

Structures are written as SMILES.

The nature of the test: Binding affinity to kappa opioid receptor in guinea pig cerebral cortex after 2.5 hrs. The class given is tissue-based, Cavia porcellus.

For the compound `CCCC[C@H](N)C(=O)N[C@@H](Cc1ccc2ccccc2c1)C(=O)N[C@@H](C(=O)N[C@@H](CCCNC(=N)N)C(N)=O)[C@@H](C)CC`, the Ki is 1.5 nM. `CCCC[C@@H](NC(=O)[C@H](Cc1ccccc1)NC(=O)[C@@H](N)Cc1ccccc1)C(=O)N[C@@H](CC1CCCCC1)C(N)=O` had a Ki of 26 nM. `CCCC[C@@H](NC(=O)[C@H](Cc1ccccc1)NC(=O)[C@@H](N)Cc1ccccc1)C(=O)N[C@@H](CCCNC(=N)N)C(N)=O` displayed a Ki of 1.2 nM. This Ki lies about 22-fold lower than the previous one. Under `CC[C@H](C)[C@@H](NC(=O)[C@H](Cc1ccc2ccccc2c1)NC(=O)[C@@H](N)Cc1ccccc1)C(=O)N[C@@H](CC1CCCCC1)C(N)=O` stands 53 nM. Consider `N=C(N)NCCC[C@H](NC(=O)[C@@H](Cc1c[nH]c2ccccc12)NC(=O)[C@H](Cc1ccccc1)NC(=O)[C@@H](N)Cc1ccccc1)C(N)=O`, for which the Ki amounted to 1140 nM. As for `CCCC[C@H](N)C(=O)N[C@@H](Cc1ccc2ccccc2c1)C(=O)N[C@H](Cc1c[nH]c2ccccc12)C(=O)N[C@@H](CC1CCCCC1)C(N)=O`, the figure is 10000 nM; as for `NC(=O)[C@H](CC1CCCCC1)NC(=O)[C@@H](Cc1c[nH]c2ccccc12)NC(=O)[C@H](Cc1ccc2ccccc2c1)NC(=O)[C@@H](N)Cc1ccccc1`, 6000 nM; as for `CCCC[C@H](N)C(=O)N[C@@H](Cc1ccccc1)C(=O)N[C@H](CCCC)C(=O)N[C@@H](CCCNC(=N)N)C(N)=O`, 4.2 nM. Compound `CCCC[C@H](N)C(=O)N[C@@H](Cc1ccccc1)C(=O)N[C@@H](C(=O)N[C@@H](CC1CCCCC1)C(N)=O)[C@@H](C)CC` came in with a Ki of 341 nM. This Ki is about 81-fold higher than that of the compound before. `CCCC[C@H](N)C(=O)N[C@@H](Cc1ccccc1)C(=O)N[C@@H](C(=O)N[C@@H](CCCNC(=N)N)C(N)=O)[C@@H](C)CC`: the affinity, expressed as Ki, was 9.3 nM. Under `CCCC[C@H](N)C(=O)N[C@@H](Cc1ccccc1)C(=O)N[C@H](CCCC)C(=O)N[C@@H](CC1CCCCC1)C(N)=O` stands 71 nM; under `CC[C@H](C)[C@@H](NC(=O)[C@H](Cc1ccc2ccccc2c1)NC(=O)[C@@H](N)Cc1ccccc1)C(=O)N[C@@H](CCCNC(=N)N)C(N)=O`, 3.6 nM. On to `CC[C@H](C)[C@@H](NC(=O)[C@H](Cc1ccccc1)NC(=O)[C@@H](N)Cc1ccccc1)C(=O)N[C@@H](CCCNC(=N)N)C(N)=O`, for which the Ki was found to be 2.4 nM. `CCCC[C@@H](NC(=O)[C@H](Cc1ccc2ccccc2c1)NC(=O)[C@@H](N)Cc1ccccc1)C(=O)N[C@@H](CCCNC(=N)N)C(N)=O`: the Ki was 7.1 nM. The compound `CCCC[C@H](N)C(=O)N[C@@H](Cc1ccccc1)C(=O)N[C@H](Cc1c[nH]c2ccccc12)C(=O)N[C@@H](CCCNC(=N)N)C(N)=O` returned a Ki of 4550 nM. Turning to `NC(=O)[C@H](CC1CCCCC1)NC(=O)[C@@H](Cc1c[nH]c2ccccc12)NC(=O)[C@H](Cc1ccccc1)NC(=O)[C@@H](N)Cc1ccccc1`, the Ki amounted to 10000 nM. Under `N=C(N)NCCC[C@H](NC(=O)[C@@H](Cc1c[nH]c2ccccc12)NC(=O)[C@H](Cc1ccc2ccccc2c1)NC(=O)[C@@H](N)Cc1ccccc1)C(N)=O` stands 1150 nM; under `CCCC[C@H](N)C(=O)N[C@@H](Cc1ccc2ccccc2c1)C(=O)N[C@@H](C(=O)N[C@@H](CC1CCCCC1)C(N)=O)[C@@H](C)CC`, 56 nM; under `CCCC[C@H](N)C(=O)N[C@@H](Cc1ccccc1)C(=O)N[C@H](Cc1c[nH]c2ccccc12)C(=O)N[C@@H](CC1CCCCC1)C(N)=O`, 10000 nM.

Compound `CCCC[C@H](N)C(=O)N[C@@H](Cc1ccc2ccccc2c1)C(=O)N[C@H](CCCC)C(=O)N[C@@H](CC1CCCCC1)C(N)=O` yielded a Ki of 27 nM. `CCCC[C@H](N)C(=O)N[C@@H](Cc1ccc2ccccc2c1)C(=O)N[C@H](Cc1c[nH]c2ccccc12)C(=O)N[C@@H](CCCNC(=N)N)C(N)=O` returned a Ki of 1760 nM. With `CCCC[C@@H](NC(=O)[C@H](Cc1ccc2ccccc2c1)NC(=O)[C@@H](N)Cc1ccccc1)C(=O)N[C@@H](CC1CCCCC1)C(N)=O`, the affinity, expressed as Ki, was 33 nM. Compared with the last compound, the Ki is about 53-fold lower.

`CC[C@H](C)[C@@H](NC(=O)[C@H](Cc1ccccc1)NC(=O)[C@@H](N)Cc1ccccc1)C(=O)N[C@@H](CC1CCCCC1)C(N)=O` gave a Ki of 64 nM. `CCCC[C@H](N)C(=O)N[C@@H](Cc1ccc2ccccc2c1)C(=O)N[C@H](CCCC)C(=O)N[C@@H](CCCNC(=N)N)C(N)=O` gave a Ki of 2.3 nM.
